Source: publication PMC9640981, “Plant vernalization proteins contain unusual PHD superdomains without histone H3 binding activity” (The Journal of Biological Chemistry, 2022)

Assays:
[1] = tested on: ^15N-labeled Pd VIN3_123-326; experiment: NMR (BEST-TROSY) interaction of negatively charged polymers with Pd VIN3 PHD superdomain; type: binding, Phoenix dactylifera
Protocol: For NMR spectroscopy, A. thaliana VIN3_150-208 and P. dactilyfera VIN3_123-326 were expressed in M9 minimal medium supplemented with 0.4% glucose, antibiotics, trace elements, 25 ml overnight culture, and 2 g of ^15N-H4Cl per liter of expression culture. Cultures were grown and processed essentially as described before. NMR samples containing 50 μM ^15N-labeled VIN3_150-208 or VIN3_123-326 were prepared in aqueous buffer (25 mM Tris pH 8, 150 mM NaCl, and 1 mM DTT). The 50 μM ^15N-labeled VIN3_150-208 or VIN3_123-326 was incubated with 0.5 mM histone H3 peptides resuspended in 25 mM Tris pH 8, 150 mM NaCl, and 1 mM DTT for >30 min before measurement. Spectra were recorded on a Bruker Avance-III spectrometer operating at 600 MHz ^1H frequency and equipped with a 5 mm inverse detection cryogenic probe. BEST-TROSY shift correlation experiments ([45]) were acquired with 256 × 1024 points in t1 and t2, respectively. Spectra were processed in TopSpin version 3.2 (Bruker), with linear prediction in t1, giving a digital resolution of 2.2 and 8.2 Hz/point in the processed data.
Generation of nucleic acid probes for NMR
FLC DNA was used as a template for the design of a dsDNA 60-mer probe, generated by annealing the sequence (5′ […] 3′) and its complementary oligonucleotide for 2 min at 95 °C. […]

Pd VIN3_123-326 = experiment: ITC binding to Pd VIN3 PHD superdomain; parameters: species or system Phoenix dactylifera; conditions: 25 °C, Pd VIN3_123-326 with 60-mer DNA
Protocol: VIN3_123-326 from P. dactilyfera was amplified by PCR from synthetic codon optimized genes (gBlocks, Integrated DNA Technologies) and subcloned into pEC-LIC-His-3C (kindly provided by Jurg Muller) containing a hexahistidine tag and a 3C protease cleavage site at the N terminus. VIN3_123-326 was expressed and purified as described previously for VIN3_150-208. In this case, after 3C cleavage overnight, the sample was loaded on a HiLoad 26/600 Superdex 200 pg column (GE Healthcare) in 25 mM Tris pH 8, 150 mM NaCl, and 1 mM DTT.
ITC was carried out at 25 °C with an iTC 200 Microcalorimeter (GE Healthcare) in 25 mM Tris pH 8, 150 mM NaCl, and 1 mM DTT. Titrations consisted of 19 consecutive 2 μl injections of 0.25 to 1 mM peptide solution (following a preinjection of 0.5 μl) into 50 μM protein (VIN3PHD, VIN3_123-326, VIN3_116-307, OBE1_193-372, or pVP13 VIN3_130-299) at time intervals of 120 s. ITC data were analyzed using MicroCal PEAQ-IT Analysis Software (Malvern Sciences).

Substance | perturbation of BEST-TROSY spectrum, heparin (in words) ([1]; 50 μM ^15N-labeled VIN3_123-326, 4 μM heparin) | affinity / binding of nucleic acid (in words) (Pd VIN3_123-326; ITC titrations, pH 8) | Kd (Pd VIN3_123-326; ITC, 25 mM Tris pH 8, 150 mM NaCl, 1 mM DTT, representative profile) [mM] | perturbation of BEST-TROSY spectrum (in words) ([1]; 50 μM ^15N-labeled VIN3_123-326, 4 μM 60-mer dsDNA or 63-mer RNA (Fig. 6A, B), ssDNA comparison E. F.-E., unpublished)
heparin | same set of perturbations | – | – | –
60-mer ssDNA: FLC 60-mer predicted to lack secondary structure, 5′ GAAGAAAAAGTAGATAGGCACAAAAAATAGAAAGAAATAAAGCGAGAAAAGGAAAAAAAA 3′ (DNA, backbone and methylation of C not given here) | – | weak binding in the low millimolar range | ~5 | less effective in eliciting spectral changes than dsDNA
